Read-outs that look alike come from different tables or passages of the source.

The assay addresses T1, human GLP1R (Homo sapiens, UniProt P43220).
T1 construct: expressed in transfected cells; host or cells: CHO cells (ATCC), transient transfection with pCMV-human GLP1R
The experiment in a line: Human GLP-1 receptor transfected cell assay (MRE/CRE-luciferase reporter gene, agonist activity). Format: cell-based. To be noted: 6 h; for activation at 3.16 µM: concentration 3.16 μM; for activation at 1 µM: concentration 1 μM; for activation at 3 µM: concentration 3 μM. How it is done: The glucagon-like peptide I receptor (GLP1R) is a class B Gs-coupled membrane receptor, an agonist of which activates adenylate cyclase (AC) and elevates intracellular cAMP level. In turn, the high content of secondary messengers can activate the cAMP response element binding protein (CREB), which can translocate into nucleus to activate gene transcription.
A reporter gene based screening assay was established to measure the effect of a compound on GLP1R. In this assay, a compound was incubated with CHO cells transiently transfected with a human GLP1R plasmid and a multiple response element (MRE)/cAMP response element (CRE)-driven luciferase reporter plasmid. Once luciferase was induced by the compound, its specific substrate can be activated to produce light signal for measurement.
Materials used in this assay included: (i) cell line: Chinese hamster ovary (CHO) cells (ATCC); (ii) fetal bovine serum (FBS) (Biochrom Co.); (iii) culture medium: RPMI1640 (Invitrogen Co.) supplemented with 10% FBS; (iv) LIPOFECTAMINE™ 2000 Reagent (Invitrogen Co.); (v) plasmids: pCMV-human GLP1R and pGL3-1905 reporter plasmid; (vi) GLP1 (7-36 amide) peptide (Sigma Co.); and (vii) BRIGHT-GLO™ Luciferase Assay System (Promega Co.).
Instruments used in this assay included: (i) Form a carbon dioxide incubator (Thermo Form a Co.); and (ii) Flexstation 3 (Molecular Device Co.).
Before transfection, CHO cells were plated into a 6-well culture plate at 800,000/2 mL/well, and cultured at 37° C. in 5% CO2 overnight. On the transfection day, cells were transfected with receptor plasmid and reporter plasmid using LIPOFECTAMINE™ 2000 reagent. After 6-hour transfection, cells were digested and seeded into 96-well plates at 20,000/100 μL/well. After 14-16 hour incubation, transfected cells were washed with 100 μL serum-free RPMII 640 medium first, and then added 50 μL of the culture medium. The GLP-1 standard and test compounds were respectively diluted to a series of concentrations, which were then added into the above 96-well culture plate at 50 μL/well. The cells were incubated at 37° C. in 5% CO2 for 6 hrs. The activity of luciferase was detected using BRIGHT-GLO™ Luciferase Analytic System, and the reading was performed with a Flexstation3 plate reader machine.
A general note: Reporter assays use an easily measured gene product as a stand-in for the process of interest.

The mark [1] stands for this setting: concentration 10 μM, read-out: Activity (agonist), percentage of the activity of the control.
The mark [2] stands for this setting: conc. 10 μM, percentage of the activity of the control, read-out: Agonist Activity.
[3] abbreviates: read-out: Activity (agonist), percentage of the activity of the control.

T1 sequence (P43220 24-463): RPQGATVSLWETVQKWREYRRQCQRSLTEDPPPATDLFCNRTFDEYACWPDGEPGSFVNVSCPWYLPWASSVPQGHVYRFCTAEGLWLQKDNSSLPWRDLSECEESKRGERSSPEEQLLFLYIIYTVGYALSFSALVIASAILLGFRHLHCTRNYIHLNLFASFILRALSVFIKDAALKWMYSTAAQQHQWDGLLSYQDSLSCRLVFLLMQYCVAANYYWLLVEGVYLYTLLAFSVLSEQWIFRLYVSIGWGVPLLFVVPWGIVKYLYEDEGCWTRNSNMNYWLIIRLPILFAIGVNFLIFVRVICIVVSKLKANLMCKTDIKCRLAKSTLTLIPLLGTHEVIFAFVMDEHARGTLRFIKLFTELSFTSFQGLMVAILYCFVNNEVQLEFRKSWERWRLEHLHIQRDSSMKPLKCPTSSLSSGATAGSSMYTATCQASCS

Consider `CC(C)(C)OC(=O)Nc1ccc(-c2nc(-c3ccc(CC(NC(=O)c4coc(-c5ccc(Cl)cc5)n4)C(=O)O)cc3F)no2)cc1` (stereo not drawn) [Compound 3H], for which the activation at 10 µM under setting [1] was in the range of 20 to 40%.

Turning to `Cc1ccc(CN2CCN(C(=O)NC(Cc3ccc(-c4noc(-c5ccc(NC(=O)OC(C)(C)C)cc5)n4)c(F)c3)C(=O)O)CC2)cc1` (stereo not drawn) [Compound 11Q], the activation at 10 µM under setting [2] was greater than 60%. For `CC(C)(C)OC(=O)Nc1ccc(-c2nc(-c3ccc(CC(NC(=O)Nc4ccnc(Cl)c4)C(=O)O)cc3F)no2)cc1` (stereo not drawn) [Compound 4L], the activation at 3.16 µM under setting [3] is 40 to 60%. For `Cc1ccc(-c2ccc(C(=O)NC(Cc3ccc(-c4noc(-c5ccc(NC(=O)OC(C)(C)C)cc5)n4)c(F)c3)C(=O)O)o2)cc1F` (stereo not drawn) [Compound 1N], the activation at 1 µM under setting [3] is greater than 60%. For `CC(C)(C)OC(=O)Nc1ccc(-c2nc(-c3ccc(CC(NC(=O)c4ccc(-c5ccc(Cl)cc5Cl)o4)C(=O)O)cc3F)no2)cc1` (stereo not drawn) [Compound 1L], the activation at 3.16 µM under setting [3] was greater than 60%. Take `COc1ccc(C[C@@H](NC(=O)c2ccc(-c3ccc(C)cc3)o2)C(=O)O)cc1-c1noc(-c2ccc(NC(=O)OC(C)(C)C)cc2)n1` [Compound 6W]: the activation at 3 µM under setting [3] was in the range of 20 to 40%. On to `CC(C)(C)OC(=O)Nc1ccc(/C=C/c2ccc(CC(NC(=O)c3ccc(NC(=O)OC(C)(C)C)cc3)C(=O)O)cc2F)cc1` (stereo not drawn) [Compound 5R], for which the activation at 3.16 µM under setting [3] is 40 to 60%. On the same count and under the same terms, under `CC(C)c1ccc(-c2ccc(C(=O)N[C@H](Cc3ccc(-c4noc(-c5ccc(NC(=O)OC(C)(C)C)cc5)n4)c(F)c3)C(=O)O)o2)cc1` [Compound 6B] stands 40 to 60%.

On to `Cc1ccc(-c2ccc(C(=O)NC(Cc3ccc(-c4ccc(-c5ccc(NC(=O)OC(C)(C)C)cc5)s4)c(F)c3)C(=O)O)o2)cc1` (stereo not drawn) [Compound 5N], for which the activation at 1 µM under setting [3] was greater than 60%. Turning to `CC(C)(C)OC(=O)Nc1ccc(-c2nc(-c3ccc(CC(NC(=O)c4cc(-c5ccc(F)cc5)no4)C(=O)O)cc3F)no2)cc1` (stereo not drawn) [Compound 2U], the activation at 10 µM under setting [1] is greater than 60%. With `CC(C)(C)OC(=O)Nc1ccc(-c2nc(-c3ccc(CC(NC(=O)Nc4ccc(Br)nc4)C(=O)O)cc3F)no2)cc1` (stereo not drawn) [Compound 4N], the activation at 3.16 µM under setting [3] was 20 to 40%. Same read-out and setting: in the case of `CC(C)(C)OC(=O)Nc1ccc(-c2nc(-c3ccc(CC(NC(=O)Nc4cc(-c5ccccc5)n[nH]4)C(=O)O)cc3F)no2)cc1` (stereo not drawn) [Compound 4G] it was greater than 60%. On to `Cc1cc(C[C@@H](NC(=O)c2ccc(-c3ccc(Cl)cc3F)o2)C(=O)O)ccc1-c1noc(-c2ccc(NC(=O)OC(C)(C)C)cc2)n1` [Compound 6S], for which the activation at 1 µM under setting [3] fell in the range of 20 to 40%. Turning to `CC(C)c1ccc(-c2cccc(C(=O)NC(Cc3ccc(-c4noc(-c5ccc(NC(=O)OC(C)(C)C)cc5)n4)c(F)c3)C(=O)O)c2)cc1` (stereo not drawn) [Compound 2K], under setting [3], the activation at 3.16 µM was greater than 60%. Take `CC(C)(C)OC(=O)Nc1ccc(-c2nc(-c3ccc(CC(NC(=O)Nc4ccc(C(C)(C)C)cc4)C(=O)O)cc3F)no2)cc1` (stereo not drawn) [Compound 4V]: the activation at 3 µM under setting [3] fell in the range of 40 to 60%. Regarding `Cc1ccc(S(=O)(=O)NC(Cc2ccc(-c3noc(-c4ccc(NC(=O)OC(C)(C)C)cc4)n3)c(F)c2)C(=O)O)cc1Cl` (stereo not drawn) [Compound 3P, 3-{4-[5-(4-tert-Butoxcarbonylamino-phenyl)-[1,2,4]oxadiazol-3-yl]-3-fluorophenyl}-2-(3-chloro-4-methyl-benzenesulfonylamino)-propionic acid], under setting [3], the activation at 1 µM lay within 40 to 60%. Still for that read-out and setting: in the case of `Cc1ccc(-c2ccc(C(=O)NC(Cc3ccc(-c4noc(-c5ccc(NC(=O)OC(C)C)cc5)n4)c(F)c3)C(=O)O)o2)cc1` (stereo not drawn) [Compound 2D] it was 40 to 60%; in that of `Cc1ccc(-c2ccc(NC(=O)NC(Cc3ccc(-c4noc(-c5ccc(NC(=O)OC(C)(C)C)cc5)n4)c(F)c3)C(=O)O)nc2)cc1` (stereo not drawn) [Compound 4T], 40 to 60%. On to `Cc1ccccc1-c1ccc(NC(=O)NC(Cc2ccc(-c3noc(-c4ccc(NC(=O)OC(C)(C)C)cc4)n3)c(F)c2)C(=O)O)nc1` (stereo not drawn) [Compound 13U], for which, under setting [2], the activation at 10 µM is greater than 60%. For `COc1ccc(Cn2cc(C(=O)NC(Cc3ccc(-c4noc(-c5ccc(NC(=O)OC(C)(C)C)cc5)n4)c(F)c3)C(=O)O)cn2)cc1` (stereo not drawn) [Compound 2W], the activation at 10 µM under setting [1] was greater than 60%. Consider `Cc1ccc(-c2ccc(C(=O)NC(Cc3ccc(F)c(C#Cc4ccc(NC(=O)OC(C)(C)C)cc4)c3)C(=O)O)o2)cc1` (stereo not drawn) [Compound 6E], for which, under setting [3], the activation at 3.16 µM was greater than 60%.

In the case of `CC(C)(C)OC(=O)Nc1ccc(C#Cc2ccc(CC(NC(=O)c3cccc(-c4ccc(Cl)cc4)c3)C(=O)O)cc2F)cc1` (stereo not drawn) [Compound 4E], the activation at 3 µM under setting [3] lay within 20 to 40%.

Turning to `Cc1ccc(-c2ccc(C(=O)N[C@@H](Cc3ccc(-c4noc(-c5ccc(NC(=O)OC(C)(C)C)cc5)n4)c(F)c3)C(=O)O)o2)cc1` [Compound 12E], under setting [3], the activation at 3.16 µM is greater than 60%. Regarding `CC(C)(C)OC(=O)Nc1ccc(-c2nc(-c3ccc(C[C@@H](NC(=O)c4cccc(-c5ccc(Cl)cc5)c4)C(=O)O)cc3F)no2)cc1` [Compound 6A], under setting [1], the activation at 10 µM is greater than 60%. Consider `Cc1ccc(-c2cc(C(=O)NC(Cc3ccc(-c4noc(-c5ccc(NC(=O)OC(C)(C)C)cc5)n4)c(F)c3)C(=O)O)ccn2)cc1` (stereo not drawn) [Compound 14C], for which, under setting [2], the activation at 10 µM is greater than 60%. On to `CC(C)(C)OC(=O)Nc1ccc(-c2nc(-c3ccc(CC(NC(=O)N4CCCN(c5ccc(F)cn5)CC4)C(=O)O)cc3F)no2)cc1` (stereo not drawn) [Compound 4Q], for which the activation at 3.16 µM under setting [3] is greater than 60%. `CC(C)(C)OC(=O)Nc1ccc(-c2nc(-c3ccc(CC(NC(=O)N4CCN(c5ccc(C(F)(F)F)cc5)CC4)C(=O)O)cc3F)no2)cc1` (stereo not drawn) [Compound 12A]: the activation at 10 µM under setting [2] is greater than 60%. As for `Cc1ccc(-c2ccc(C(=O)NC(Cc3ccc(-c4noc(-c5ccc(NC(=O)OC(C)(C)C)cc5)n4)c(F)c3F)C(=O)O)o2)cc1F` (stereo not drawn) [Compound 5M], the activation at 1 µM under setting [3] is greater than 60%. As to `CC(C)(C)OC(=O)Nc1ccc(-c2nc(-c3ccc(CC(NC(=O)/C=C/c4ccc(Cl)c(C(F)(F)F)c4)C(=O)O)cc3F)no2)cc1` (stereo not drawn) [Compound 2B], under setting [3], the activation at 3 µM was 40 to 60%. Turning to `Cc1ccc(N2CCC(NC(=O)NC(Cc3ccc(-c4noc(-c5ccc(NC(=O)OC(C)(C)C)cc5)n4)c(F)c3)C(=O)O)C2)cc1` (stereo not drawn) [Compound 13P], the activation at 10 µM under setting [2] is greater than 60%.

`CC(C)(C)OC(=O)Nc1ccc(-c2nc(-c3ccc(CC(NC(=O)c4cc(-c5ccccc5)cs4)C(=O)O)cc3F)no2)cc1` (stereo not drawn) [Compound 1Z]: the activation at 10 µM under setting [1] is 40 to 60%. Same read-out and setting: in the case of `Cc1ccc(-c2ccc(C(=O)NC(Cc3cc(F)c(-c4noc(-c5ccc(NC(=O)OC(C)(C)C)cc5)n4)c(F)c3)C(=O)O)o2)cc1` (stereo not drawn) [Compound 5L] it was greater than 60%. Consider `CC(C)(C)OC(=O)Nc1ccc(-c2nc(-c3ccc(CC(NC(=O)c4ccc(N5CCOCC5)cc4)C(=O)O)cc3F)no2)cc1` (stereo not drawn) [Compound 3V], for which the activation at 3 µM under setting [3] was in the range of 20 to 40%. With `CC1CCN(c2cccc(C(=O)NC(Cc3ccc(-c4noc(-c5ccc(NC(=O)OC(C)(C)C)cc5)n4)c(F)c3)C(=O)O)c2)CC1` (stereo not drawn) [Compound 3S], the activation at 1 µM under setting [3] was greater than 60%. `CC(C)(C)OC(=O)Nc1ccc(-c2nc(-c3ccc(CC(NC(=O)Nc4ccncc4)C(=O)O)cc3F)no2)cc1` (stereo not drawn) [Compound 4H]: the activation at 3.16 µM under setting [3] was greater than 60%. As to `CC(C)(C)OC(=O)Nc1ccc(-c2nc(-c3ccc(CC(NC(=O)c4cc(-c5ccc(Cl)cc5F)c[nH]4)C(=O)O)cc3F)no2)cc1` (stereo not drawn) [Compound 3L], under setting [3], the activation at 1 µM was 20 to 40%. With `CCc1ccc(-c2cccc(C(=O)NC(Cc3ccc(-c4noc(-c5ccc(NC(=O)OC(C)(C)C)cc5)n4)c(F)c3)C(=O)O)c2)cc1` (stereo not drawn) [Compound 2I], the activation at 10 µM under setting [1] lay in the range of 40 to 60%. On to `Cc1ccc(-n2cc(C(=O)NC(Cc3ccc(-c4noc(-c5ccc(NC(=O)OC(C)(C)C)cc5)n4)c(F)c3)C(=O)O)cn2)cc1F` (stereo not drawn) [Compound 3B], for which the activation at 3.16 µM under setting [3] is greater than 60%. Still for that read-out and setting: under `CC(C)(C)OC(=O)Nc1ccc(-c2nc(-c3ccc(CC(NS(=O)(=O)N4CCN(c5ccccc5F)CC4)C(=O)O)cc3F)no2)cc1` (stereo not drawn) [Compound 4B] stands 40 to 60%. As to `Cc1cccc(-c2ccc(NC(=O)NC(Cc3ccc(-c4noc(-c5ccc(NC(=O)OC(C)(C)C)cc5)n4)c(F)c3)C(=O)O)nc2)c1` (stereo not drawn) [Compound 13L], the activation at 10 µM under setting [2] is greater than 60%. On the same count and under the same terms, in the case of `CC(C)(C)OC(=O)Nc1ccc(-c2nc(-c3ccc(CC(NC(=O)N4CCN(c5cccc(Cl)c5)CC4)C(=O)O)cc3F)no2)cc1` (stereo not drawn) [Compound 12C] it was greater than 60%; in that of `CC(C)(C)OC(=O)Nc1ccc(-c2nc(-c3ccc(CC(NC(=O)c4ccc(-c5ccc([N+](=O)[O-])cc5)o4)C(=O)O)cc3F)no2)cc1` (stereo not drawn) [Compound 11G], greater than 60%.

(Values after US8748412B2, “Phenylalanine derivatives and their use as non-peptide GLP-1 receptor modulators” (Argusina Bioscience Inc., priority 2011, dated 2014).)
